According to patent US11261186B2, “Biaryl derivative as GPR120 agonist” (LG CHEM, LTD., priority 2014, dated 2022):

What follows are molecules tested against T1, hGPR120 (Homo sapiens, UniProt Q5NUL3) (assay: Measurement of Activity of GPR120 Agonist (Cell-Based Assay), Calcium 5 dye fluorescence). Settings: CHO-K1 cells expressing Ga16 and hGPR120.
T1 construct: expressed in transfected cells; host or cells: CHO-K1
T1 sequence (Q5NUL3 1-361): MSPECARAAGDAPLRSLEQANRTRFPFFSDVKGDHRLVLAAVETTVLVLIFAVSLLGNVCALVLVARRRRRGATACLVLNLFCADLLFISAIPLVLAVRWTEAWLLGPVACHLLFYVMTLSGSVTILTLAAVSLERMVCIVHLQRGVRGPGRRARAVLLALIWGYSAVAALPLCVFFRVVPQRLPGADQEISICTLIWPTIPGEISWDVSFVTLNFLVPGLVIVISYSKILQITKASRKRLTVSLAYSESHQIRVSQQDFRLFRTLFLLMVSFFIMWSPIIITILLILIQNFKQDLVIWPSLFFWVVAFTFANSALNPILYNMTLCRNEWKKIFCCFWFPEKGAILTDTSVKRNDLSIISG
In short: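 Gα16/hGPR120 CHO-K1; 18 h plating, 37 °C, 5% CO2; Calcium 5 dye load 1 h; agonist serial dilution, 0.5% DMSO final; fluor Ex485/Em525; response as % of 1% DMSO vehicle.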

SMILES | EC50 [nM]
CCOc1cc(C)nc(-c2cc(F)c(N3CCC(CC(=O)O)CC3)c(F)c2)n1 [Example 349, 2-[1-[4-(4-ethoxy-6-methyl-pyrimidin-2-yl)-2,6-difluoro-phenyl]-4-piperidyl]acetic acid] | < 200
Cc1cc(OC(C)C)nc(-c2cc(F)c(N3CCC(CC(=O)O)CC3)c(F)c2)n1 [Example 350, 2-[1-[2,6-difluoro-4-(4-isopropoxy-6-methyl-pyrimidin-2-yl)phenyl]-4-piperidyl]acetic acid] | 200 to 2000
CCCOc1cc(C)nc(-c2cc(F)c(N3CCC(CC(=O)O)CC3)c(F)c2)n1 [Example 351, 2-[1-[2,6-difluoro-4-(4-methyl-6-propoxy-pyrimidin-2-yl)phenyl]-4-piperidyl]acetic acid] | < 200
Cc1cc(OCC(C)C)nc(-c2cc(F)c(N3CCC(CC(=O)O)CC3)c(F)c2)n1 [Example 352, 2-[1-[2,6-difluoro-4-(4-isobutoxy-6-methyl-pyrimidin-2-yl)phenyl]-4-piperidyl]acetic acid] | 200 to 2000
O=C(O)CC1CCN(c2c(F)cc(-c3cncc(N4CCCC4)n3)cc2F)CC1 [Example 353, 2-[1-[2,6-difluoro-4-(6-pyrrolidin-1-ylpyrazin-2-yl)phenyl]-4-piperidyl]acetic acid] | 2000 to 20000
CC(C)Nc1cncc(-c2cc(F)c(N3CCC(CC(=O)O)CC3)c(F)c2)n1 [Example 354, 2-[1-[2,6-difluoro-4-[6-(isopropylamino)pyrazin-2-yl]phenyl]-4-piperidyl]acetic acid] | 200 to 2000
CCN(CC)c1cncc(-c2cc(F)c(N3CCC(CC(=O)O)CC3)c(F)c2)n1 [Example 355, 2-[1-[4-[6-(diethylamino)pyrazin-2-yl]-2,6-difluoro-phenyl]-4-piperidyl]acetic acid] | 2000 to 20000
CC(C)CNc1cncc(-c2cc(F)c(N3CCC(CC(=O)O)CC3)c(F)c2)n1 [Example 356, 2-[1-[2,6-difluoro-4-[6-(isobutylamino)pyrazin-2-yl]phenyl]-4-piperidyl]acetic acid] | 200 to 2000
O=C(O)CC1CCN(c2c(F)cc(-c3cncc(NC4CCCC4)n3)cc2F)CC1 [Example 357, 2-[1-[4-[6-(cyclopentylamino)pyrazin-2-yl]-2,6-difluoro-phenyl]-4-piperidyl]acetic acid] | 200 to 2000
O=C(O)CC1CCN(c2c(F)cc(-c3cccc(NC4CCCC4)n3)cc2F)CC1 [Example 358, 2-[1-[4-[6-(cyclopentylamino)-2-pyridyl]-2,6-difluoro-phenyl]-4-piperidyl]acetic acid] | 200 to 2000
CC(C)CNc1ccnc(-c2cc(F)c(N3CCC(CC(=O)O)CC3)c(F)c2)n1 [Example 360, 2-[1-[2,6-difluoro-4-[4-(isobutylamino)pyrimidin-2-yl]phenyl]-4-piperidyl]acetic acid] | 200 to 2000
Cc1ncc(-c2cc(F)c(N3CCC(CC(=O)O)CC3)c(F)c2)nc1OC1CCC1 [Example 361, 2-[1-[4-[6-(cyclobutoxy)-5-methyl-pyrazin-2-yl]-2,6-difluoro-phenyl]-4-piperidyl]acetic acid] | 200 to 2000
O=C(O)CC1CCN(c2c(F)cc(-c3cncc(C4CCCC4)n3)cc2F)CC1 [Example 363, 2-[1-[4-(6-cyclopentylpyrazin-2-yl)-2,6-difluoro-phenyl]-4-piperidyl]acetic acid] | < 200
CC(C)Cc1cncc(-c2cc(F)c(N3CCC(CC(=O)O)CC3)c(F)c2)n1 [Example 364, 2-[1-[2,6-difluoro-4-(6-isobutylpyrazin-2-yl)phenyl]-4-piperidyl]acetic acid] | 200 to 2000
CC(C)Cc1ccnc(-c2cc(F)c(N3CCC(CC(=O)O)CC3)c(F)c2)n1 [Example 365, 2-[1-[2,6-difluoro-4-(4-isobutylpyrimidin-2-yl)phenyl]-4-piperidyl]acetic acid] | 200 to 2000
Cc1nsc(OC2CCC2)c1-c1cc(F)c(N2CCC(CC(=O)O)CC2)c(F)c1 [Example 366, 2-[1-[4-[5-(cyclobutoxy)-3-methyl-isothiazol-4-yl]-2,6-difluoro-phenyl]-4-piperidyl]acetic acid] | 200 to 2000
